According to patent US12275957B2, “Next generation designer liver organoids and their methods of preparation and use” (ARIZONA BOARD OF REGENTS ON BEHALF OF ARIZONA STATE …, priority 2018, dated 2025):
Where two headings read alike, the source gives them in different places.

How the values were obtained:
[1] = test system: FXR signaling (CYP7A1, NROB2/SHP, FGF19 expression) in DesLO
Protocol: (§1) To further delineate the mechanism of FXR-mediated CYP7A1 repression, we tested FXR, NROB2, and FGF19 expression following GW4064 treatment.
(§2) Tissues were harvested and lysed by adding 500 μL Trizol (Life Technologies) directly to the tissue culture well and freezing at −80C. For extraction, lysate was thawed on ice, 100 μL chloroform was added, vortexed for 30 seconds, and centrifuged at 12,000 g for 15 minutes at 4° C. After centrifugation the aqueous phase was transferred to a Qiagen gDNA eliminator column and centrifuged at 10,000 g for 1 minute at 4° C. The flow-through was mixed with an equal volume of 70% EtOH and transferred to an RNEasy mini spin column. The manufacturer protocol for the RNEasy Plus Mini Kit (QIAGEN) was followed for the rest of the procedure. cDNA was synthesized using the high Capacity cDNA reverse transcription (Applied Biosystems). qRT-PCR was performed using the SYBR Green intercalating dye (ThermoFisher Scientific) and previously validated primers (IDT). Expression was normalized to 18S ribosomal RNA and relative gene expression was calculated using 2^−ΔΔCT method.

[2] = test system: FXR signaling (CYP7A1, NROB2/SHP, FGF19 expression) in DesLO; assay: qRT-PCR of bile acid synthesis / FXR pathway genes in DesLO after addition of FXR agonist, bile acid or FGF19
Protocol: as §1, §2

[3] = test system: FXR signaling (CYP7A1, NROB2/SHP, FGF19 expression) in FeLO; assay: qRT-PCR of bile acid synthesis / FXR pathway genes in FeLO after addition of FXR agonist; settings: FeLO cultures
Protocol: as §1, §2

[4] = test system: bile acid synthesis in DesLO; assay: Total bile acid assay in media; type: cell-based, human; settings: addition of GW4064
Protocol: The cell supernatant was assessed at multiple dilutions to optimize detection, and the assay was performed according to the manufacturer's protocol.

[5] = test system: Desmin positive stellate-like cells in DesLO; assay: Fibrogenesis model: Desmin immunofluorescence and qRT-PCR; type: cell-based, human; settings: for Desmin positive population (immunofluorescence staining): 5 ng/mL TGFB1 for 3 days
Text: Multicellular DesLO as a Model for Fibrogenesis: Hepatic fibrosis is a maladaptive multicellular response of liver that is characterized by an excessive accumulation of extracellular matrix. It is a wound healing process, largely mediated by hepatic stellate cells (liver pericytes) which proliferate, deposit collagen, and generate scar tissue in response to injury. Since DesLOs contain a population of stellate-like cells we assessed whether this cell population respond to classical fibrotic stimuli. We induced fibrogenesis via transforming growth factor beta-1 (TGFβ1) or a combination of TGFβ1 and fetal bovine serum (FBS) supplementation to the culture medium. […] It is known that tissue culture treated polystyrene (TCTP) can increase cell stress and stellate cell proliferation.
Cells were grown on Matrigel-coated 8 mm or 12 mm diameter circular glass coverslips and fixed for 20 min in 4% paraformaldehyde (Electron Microscopy Sciences) at room temperature. Coverslips were then washed three times in 200 μl PBS droplets on Parafilm (Pechiney Plastic Packaging Company) followed by 15 min permeabilization in 100 μl of 0.2% Triton X-100 in PBS. Subsequently the coverslips were washed three times in 200 μl in washing buffer (0.05% Tween-20 in PBS) for 5 min and blocked for 20 min in 200 μl wash buffer plus 5% normal donkey serum (Jackson ImmunoResearch Laboratories). The incubation with the primary antibodies was performed for 1 h at room temperature in 30 μl of 5% normal donkey serum in PBS followed by three washes in 200 μl in PBS for 5 min each. The incubation with the secondary antibodies was performed for 1 h at room temperature in 30 μl of 5% normal donkey serum in PBS followed by three washes in 200 μl in PBS for 5 min. Finally, the coverslips were mounted on microscopy glass slides using ProLong Diamond Antifade (Life Technologies, USA), cured overnight at room temperature and then sealed with nail polish. Antibody list and concentrations are included in the supplement.

C[C@H](CCC(=O)O)[C@H]1CC[C@H]2[C@@H]3[C@H](O)C[C@@H]4C[C@H](O)CC[C@]4(C)[C@H]3CC[C@]12C [CDCA, chenodeoxycholic acid]
CYP7A1 expression change (qRT-PCR) [1]: expected downregulation of CYP7A1

CC(C)c1onc(-c2c(Cl)cccc2Cl)c1COc1ccc(/C=C/c2cccc(C(=O)O)c2)c(Cl)c1 [GW4064]
upregulation of FGF19 ([2]; GW4064 treatment): > 40 folds | upregulation of SHP (NROB2) ([2]; GW4064 treatment): > 40 folds | CYP7A1 repression (real-time qPCR) ([2]; addition of GW4064): 4 fold | upregulation of SHP and FGF19 / CYP7A1 repression ([3]; GW4064 treatment): could not be captured | CYP7A1 repression (real-time qPCR) ([3]; addition of GW4064): not repressed | total bile acid in media [4]: repression of bile acid synthesis

fibroblast growth factor 19 [FGF19]
CYP7A1 expression change (qRT-PCR) ([2]; addition to the media): expected downregulation of CYP7A1

transforming growth factor beta-1 [TGFβ1]
Desmin positive population (immunofluorescence staining) ([5]; DesLO, versus vehicle control): visibly expanded | Desmin positive population (immunofluorescence staining) ([5]; DesLO, versus vehicle control, listed as TGFB1): increase in expression | Desmin levels (qRT-PCR) ([5]; DesLO, versus vehicle control): increase | response to TGFβ1 treatment (Desmin qRT-PCR) ([5]; both FeLO and DesLO): responded modestly
